Assay results published in ChEMBL document CHEMBL1125711, “Flavins as potential antimalarials. 2. 3-Methyl-10-(substituted-phenyl) flavins” (J Med Chem, 1991).

These molecules were tested on Mus musculus (assay: Antimalarial activity was evaluated against Plasmodium vinckei vinckei V52 after intraperitoneal administration at dose 70 mg/kg). Details: not given.
Assay type: functional
Work on Cc1ccc(-n2c3nc(=O)n(C)c(=O)c-3nc3ccccc32)cc1C yielded a Cured of 100%.

What follows are molecules tested on Mus musculus (assay: Antimalarial activity was evaluated against Plasmodium vinckei vinckei V52 after intraperitoneal administration at dose 10 mg/kg). Details: not given.
Assay type: functional
With Cc1ccc(-n2c3nc(=O)n(C)c(=O)c-3nc3ccccc32)cc1C the Cured was 0%.

What follows are molecules tested on Plasmodium vinckei vinckei (assay: Antimalarial activity against Plasmodium vinckei vinckeii V52 after 10 mg/kg intraperitoneally dose). Details: route intraperitoneal.
Assay type: functional
With Cn1c(=O)nc2n(-c3ccc(Br)cc3)c3ccccc3nc-2c1=O the Cured was 0%.

What follows are molecules tested on Plasmodium vinckei vinckei (assay: Antimalarial activity against Plasmodium vinckei vinckeii V52 at 15 mg/kg intraperitoneally dose). Details: route intraperitoneal.
Assay type: functional
Cn1c(=O)nc2n(-c3ccc(Br)cc3)c3ccccc3nc-2c1=O showed a Cured of 100%.

The molecules below were run on Plasmodium vinckei vinckei (assay: Antimalarial activity against Plasmodium vinckei vinckeii V52 at 20 mg/kg intraperitoneally dose). Details: route intraperitoneal.
Assay type: functional
For Cn1c(=O)nc2n(-c3ccc(Br)cc3)c3ccccc3nc-2c1=O, the Cured was 100%.

What follows are molecules tested on Mus musculus (assay: Increase in mean survival days was determined in mice after ip administration of 10 mg/kg). Details: route intraperitoneal.
Assay type: functional
Work on Cn1c(=O)nc2n(-c3cccc(C(F)(F)F)c3)c3ccccc3nc-2c1=O yielded a Mean survival days of 1.4 days. Work on Cc1ccc(-n2c3nc(=O)n(C)c(=O)c-3nc3ccccc32)c(C)c1 yielded a Mean survival days of 0.4 days. Work on Cc1ccc(-n2c3nc(=O)n(C)c(=O)c-3nc3ccccc32)cc1C yielded a Mean survival days of 0.3 days.

The molecules below were run on Mus musculus (assay: Increase in mean survival days was determined in mice after ip administration of 20 mg/kg). Details: route intraperitoneal.
Assay type: functional
In the case of Cc1ccc(-n2c3nc(=O)n(C)c(=O)c-3nc3ccccc32)cc1C, the Mean survival days is reported as 0.2 days.

What follows are molecules tested on Mus musculus (assay: Increase in mean survival days was determined in mice after ip administration of 30 mg/kg). Details: route intraperitoneal.
Assay type: functional
For Cc1ccc(-n2c3nc(=O)n(C)c(=O)c-3nc3ccccc32)c(C)c1, the Mean survival days was 1.3 days. Work on Cc1ccc(-n2c3nc(=O)n(C)c(=O)c-3nc3ccccc32)cc1C yielded a Mean survival days of 0.8 days.

The molecules below were run on Mus musculus (assay: Increase in mean survival days was determined in mice after ip administration of 40 mg/kg; toxic). Details: route intraperitoneal.
Assay type: functional
Cc1ccc(-n2c3nc(=O)n(C)c(=O)c-3nc3ccccc32)c(C)c1 gave a Mean survival days of -1.7 days.

Each molecule was assayed on Mus musculus (assay: Increase in mean survival days was determined in mice after ip administration of 50 mg/kg). Details: route intraperitoneal.
Assay type: functional
Cc1ccc(-n2c3nc(=O)n(C)c(=O)c-3nc3ccccc32)cc1C showed a Mean survival days of 0.3 days.

Each molecule was assayed on Mus musculus (assay: Increase in mean survival days was determined in mice after ip administration of 50 mg/kg; toxic). Details: route intraperitoneal.
Assay type: functional
For Cc1ccc(-n2c3nc(=O)n(C)c(=O)c-3nc3ccccc32)c(C)c1, the Mean survival days was -2 days.

Each molecule was assayed on Mus musculus (assay: Increase in mean survival days was determined in mice after ip administration of 60 mg/kg). Details: route intraperitoneal.
Assay type: functional
For Cn1c(=O)nc2n(-c3cccc(C(F)(F)F)c3)c3ccccc3nc-2c1=O, the Mean survival days was 10 days. Cc1ccc(-n2c3nc(=O)n(C)c(=O)c-3nc3ccccc32)cc1C was tested, and the Mean survival days was 0.5 days.

These molecules were tested on Mus musculus (assay: Increase in mean survival days was determined in mice after ip administration of 70 mg/kg; toxic). Details: route intraperitoneal.
Assay type: functional
Cn1c(=O)nc2n(-c3cccc(C(F)(F)F)c3)c3ccccc3nc-2c1=O gave a Mean survival days of 7.5 days. Cc1ccc(-n2c3nc(=O)n(C)c(=O)c-3nc3ccccc32)c(C)c1 was tested, and the Mean survival days was -2 days.

Organism: Mus musculus
Assay: Effective dose required to obtain a parasitaemia of 40% 48 hours after treatment in mice
Assay type: functional
Details: not given
Cn1c(=O)nc2n(-c3cccc(C(F)(F)F)c3)c3ccccc3nc-2c1=O showed an ED40 of 79.3 µmol/kg. Cn1c(=O)nc2n(-c3ccc(Br)cc3)c3ccccc3nc-2c1=O showed an ED40 of 38.4 µmol/kg.

Organism: Mus musculus
Assay: Effective dose required to obtain a parasitaemia of 40% 48 hours after treatment in mice.
Assay type: functional
Details: not given
Molecule Cc1ccc(-n2c3nc(=O)n(C)c(=O)c-3nc3ccccc32)cc1C has an ED40 of 210 µmol/kg.

The molecules below were run on Mus musculus (assay: Antimalarial activity was evaluated against Plasmodium vinckei V52 after intraperitoneal administration at dose 30 mg/kg). Details: not given.
Assay type: functional
Work on Cc1ccc(-n2c3nc(=O)n(C)c(=O)c-3nc3ccccc32)cc1C yielded a Cured of 0%. With Cn1c(=O)nc2n(-c3ccc(Br)cc3)c3ccccc3nc-2c1=O the Cured was 100%.

Each molecule was assayed on Mus musculus (assay: Antimalarial activity was evaluated against Plasmodium vinckei vinckeii V52 after intraperitoneal administration at dose 50 mg/kg). Details: not given.
Assay type: functional
With Cn1c(=O)nc2n(-c3ccc(Br)cc3)c3ccccc3nc-2c1=O the Cured was 40%.

What follows are molecules tested on Mus musculus (assay: Antimalarial activity was evaluated against Plasmodium vinckei vinckeii V52 after intraperitoneal administration at dose 25 mg/kg). Details: not given.
Assay type: functional
For Cn1c(=O)nc2n(-c3ccc(Br)cc3)c3ccccc3nc-2c1=O, the Cured was 100%.

The molecules below were run on Plasmodium vinckei vinckei (assay: Antimalarial activity against Plasmodium vinckei V52 on 10 mg/kg intraperitoneal dose). Details: not given.
Assay type: functional
Molecule Cn1c(=O)nc2n(-c3cccc(C(F)(F)F)c3)c3ccccc3nc-2c1=O has a Cured of 33%. With Cc1ccc(-n2c3nc(=O)n(C)c(=O)c-3nc3ccccc32)c(C)c1 the Cured was 0%.

The molecules below were run on Mus musculus (assay: Antimalarial activity was evaluated against Plasmodium vinckei V52 after intraperitoneal administration at dose 15 mg/kg). Details: not given.
Assay type: functional
Cn1c(=O)nc2n(-c3cccc(C(F)(F)F)c3)c3ccccc3nc-2c1=O was tested, and the Cured was 100%.

The molecules below were run on Mus musculus (assay: Antimalarial activity was evaluated against Plasmodium vinckei V52 after intraperitoneal administration at dose 20 mg/kg). Details: not given.
Assay type: functional
Cc1ccc(-n2c3nc(=O)n(C)c(=O)c-3nc3ccccc32)cc1C gave a Cured of 0%.

Each molecule was assayed on Mus musculus (assay: Antimalarial activity was evaluated against Plasmodium vinckei vinckei V52 after intraperitoneal administration at dose 25 mg/kg). Details: not given.
Assay type: functional
For Cn1c(=O)nc2n(-c3cccc(C(F)(F)F)c3)c3ccccc3nc-2c1=O, the Cured was 100%.

What follows are molecules tested on Plasmodium vinckei vinckei (assay: Antimalarial activity against Plasmodium vinckei V52 on 30 mg/kg intraperitoneal dose). Details: not given.
Assay type: functional
Work on Cn1c(=O)nc2n(-c3cccc(C(F)(F)F)c3)c3ccccc3nc-2c1=O yielded a Cured of 100%.

These molecules were tested on Mus musculus (assay: Antimalarial activity was evaluated against Plasmodium vinckei vinckei V52 after intraperitoneal administration at dose 40 mg/kg). Details: not given.
Assay type: functional
In the case of Cn1c(=O)nc2n(-c3cccc(C(F)(F)F)c3)c3ccccc3nc-2c1=O, the Cured is reported as 100%. Cc1ccc(-n2c3nc(=O)n(C)c(=O)c-3nc3ccccc32)c(C)c1 was tested, and the Cured was 40%.

What follows are molecules tested on Mus musculus (assay: Antimalarial activity was evaluated against Plasmodium vinckei vinckei V52 after intraperitoneal administration at dose 50 mg/kg). Details: not given.
Assay type: functional
Molecule Cn1c(=O)nc2n(-c3cccc(C(F)(F)F)c3)c3ccccc3nc-2c1=O has a Cured of 100%. For Cc1ccc(-n2c3nc(=O)n(C)c(=O)c-3nc3ccccc32)c(C)c1, the Cured was 0%. Cc1ccc(-n2c3nc(=O)n(C)c(=O)c-3nc3ccccc32)cc1C was tested, and the Cured was 20%.

What follows are molecules tested on Mus musculus (assay: Antimalarial activity was evaluated against Plasmodium vinckei vinckei V52 after intraperitoneal administration at dose 60 mg/kg). Details: not given.
Assay type: functional
Cn1c(=O)nc2n(-c3cccc(C(F)(F)F)c3)c3ccccc3nc-2c1=O gave a Cured of 40%.

Each molecule was assayed on Mus musculus (assay: Antimalarial activity was evaluated against Plasmodium vinckei V52 after intraperitoneal administration at dose 60 mg/kg). Details: not given.
Assay type: functional
Work on Cc1ccc(-n2c3nc(=O)n(C)c(=O)c-3nc3ccccc32)cc1C yielded a Cured of 60%.

These molecules were tested on Mus musculus (assay: Antimalarial activity was evaluated against Plasmodium vinckei V52 after intraperitoneal administration at dose 70 mg/kg). Details: not given.
Assay type: functional
For Cn1c(=O)nc2n(-c3cccc(C(F)(F)F)c3)c3ccccc3nc-2c1=O, the Cured was 0%. With Cn1c(=O)nc2n(-c3ccc(Br)cc3)c3ccccc3nc-2c1=O the Cured was 0%.

What follows are molecules tested on Plasmodium vinckei vinckei (assay: Antimalarial activity against Plasmodium vinckei V52 on 70 mg/kg intraperitoneal dose). Details: not given.
Assay type: functional
Molecule Cc1ccc(-n2c3nc(=O)n(C)c(=O)c-3nc3ccccc32)c(C)c1 has a Cured of 0%.

The molecules below were run on Plasmodium vinckei vinckei (assay: Antimalarial activity against Plasmodium vinckei V52 after 20 mg/kg intraperitoneal dose). Details: not given.
Assay type: functional
Cn1c(=O)nc2n(-c3cccc(C(F)(F)F)c3)c3ccccc3nc-2c1=O was tested, and the Cured was 100%.

What follows are molecules tested on Plasmodium vinckei vinckei (assay: Antimalarial activity against Plasmodium vinckei V52 after 30 mg/kg intraperitoneal dose). Details: not given.
Cc1ccc(-n2c3nc(=O)n(C)c(=O)c-3nc3ccccc32)c(C)c1 gave a Cured of 20%.
